Data taken from patent publication US20030077573A1, “Methods of identifying compounds useful in the inhibition of neurodegenerative disease” (priority 1999, published 2003).
Bridge positions count the residues as written; N and C are the ends. Ends that are not written are not given here.

Experiments:
[1] = test system: murine microglial cell line (N9); experiment: LTB4 release from N9 microglial cells; assay type: cell-based; conditions: 18 hours; for effect on Aβ-induced microglial LTB4 release: Aβ1-40 500 nM + drug (dipyridamole 10 μM)
Description: The murine microglial cell line (N9) is kindly provided by Dr. Paola Ricciardi-Castagnoli (Cellular Pharmacology Center, Milan, Italy) and cells are grown in RPMI 1640 medium supplemented with 5% fetal calf serum, 2 mM glutamine, 100 U/mL penicillin, 0.1 μg/mL streptomycin and 0.05 mM 2-mercaptoethanol. Microglial cells are seeded at 50,000 cells/well in 6-well plates (Falcon, France) and treated with Aβ1-40 (500 nM), dipyridamole (10 μM) or untreated (control) and incubated for 18 hours. Cell supernatants are then collected and immediately frozen at −80° C.
Cell supernatants (50 μL) are used in the LTB4 assay, and each sample is assayed in duplicate. Manipulations are performed in accordance with the manufacturer's instruction. A spectramax 250 spectrophotometer (Molecular Devices, San Diego, USA) is used to measure absorbance at 405 nm and a standard curve is plotted using a 4-parameter model. Cell extracts for protein determination are obtained by lysing microglial cells in 110 μL of ice cold lysis buffer ([…] pH 7.5, 150 mM NaCl, 1 mM EDTA, 1 mM EGTA, 1% Triton X-100, 2.5 mM sodium pyrophosphate, 1 mM β-Glycerophosphate, 1 mM Na3VO4, 1 μg/ml leupeptin and 1 mM phenylmethylsulfonyl fluoride). Protein concentrations are determined for each sample using the Biorad reagent according to the manufacturer's instruction. LTB4 data are thus expressed as pg LTB4 /mg cellular protein.

[2] = test system: N9 murine microglial cell line; experiment: LPS-induced TNF-α release from N9 microglia; assay type: cell-based
rat aortic rings [3] = experiment: vasoconstriction assay, ET-1-induced constriction of rat aortic rings; conditions: ET-1 1-5 nM, ODQ 10 μM, YC-1 5 μM, L-NAME 100 μM, dipyridamole 10 μM; for effect on Aβ-enhancement of ET-1-induced vasoconstriction (agent + Aβ): 1 μM Aβ1-40, ANOVA interaction; for effect on ET-1-induced vasoconstriction (agent alone): Aβ1-40 1 μM
Description: (§1) Vasoactivity is measured in rat aortic rings using the system previously described, for example by Crawford, F., et al., The vasoactivity of Aβ peptides, Ann. N. Y. Acad. Sci. 826:3546, (1997); Crawford, F., et al., Characteristics of the in vitro vasoactivity of beta-amyloid peptides, Exp. Neurol. 150:159-168 (1998); Paris, D., et al., Isoform-specific vasoconstriction induced by Apolipoprotein E and modulation of this effect by Alzheimer's β-amyloid peptide. Neurosci. Lett. 256:73-76, (1998); Paris, D., et al., Role of peroxynitrite in the vasoactive and cytotoxic properties of Alzheimer's β-amyloid1-40 peptide, Exp. Neurol. 152:116-122 (1998); and Thomas, T. N., et al., Vasoactive effects and free radical generation by β-amyloid peptides. U.S. Pat. No. 6,011,019. Jan. 4, 2000. Normal male Sprague-Dawley rats (7-8 months old) are sacrificed, and freshly dissected rat aortae are segmented into 3 mm rings and suspended in Kreb's buffer on hooks. These hooks are connected to an isometric transducer linked to a MacLab system. Aortic rings are equilibrated in the tissue bath system for two hours with the Kreb's buffer changed every 30 min.
For the vasoconstriction assay, the first group of aortic rings are pre-treated with 10 μM ODQ 2 minutes prior to the addition of 1 μM of Aβ1-40. After 5 minutes of incubation with Aβ, the vessels are then subjected to a dose range of ET-1 (from 1 nM to 5 nM). The second set of vessels are treated with Aβ prior to the addition of ET-1. A third set received ODQ treatment followed by ET-1, and the fourth group (control) only received ET-1 treatment. A similar protocol is applied with dipyridamole (10 μM), and YC-1 (5 μM). In all cases the percentage contraction as compared to baseline is determined for each dose of ET-1 used. The means and standard errors (SEs) of all such values are calculated.

rat aortic rings [4] = experiment: vasorelaxation assay, phenylephrine-constricted rat aortic rings; conditions: for effect on the relaxation induced by SNP: vessels constricted with 3.5 nM PE, SNP 0.1, 1, 2 μM, Aβ1-40 1 μM or ODQ 10 μM
Description: as §1
For the vasorelaxation assay, constricted aortic rings are pre-treated for 5 minutes with 1 μM of Aβ with a single dose of phenylephrine (3.5×10^−9 M) along with untreated controls. After waiting for stabilization of vasotension, aortic segments are subjected to a range of SNP doses. Aortic rings pre-constricted with a single dose of phenylephrine (3.5×10^−9 M) are treated with 10 μM ODQ 5 minutes prior to the addition of several doses of SNP. The effect of 10 μM of dipyridamole is also investigated on vessels pre-constricted with 3.5×10^−9 M of phenylephrine. Data are standardized such that the maximum PE-induced constriction is fixed at 100%.

rat aortic rings [5] = experiment: quantification of cGMP and cAMP levels in rat aortae (EIA)
Description: Aortic rings are equilibrated in Kreb's buffer for 2 hours and then constricted with a serial dose range of ET-1 (from 1 nM to 5 nM) in the presence or absence of 1 μM of Aβ. Immediately following maximum vasoconstriction (or, in the case of control rings, after 2 hours of equilibration in Kreb's buffer), aortae are frozen in liquid nitrogen. Vessels are then homogenized in 10% trichloracetic acid (TCA) diluted in PBS (at 4° C.) and centrifuged to pellet TCA precipitated proteins. Supernatants are collected and TCA is then removed from samples by three extractions with diethyl ether saturated in deionized water. Residual ether is removed from the sample by heating samples to 70° C. for 10 minutes. Both cGMP and cAMP levels are quantified using competitive binding EIAs (Alexis Biochemicals, San Diego, Calif.) according to the manufacturer's instruction.

[6] = ET-1 1-5 nM vs untreated control

Nc1nc2c(nc(Br)n2[C@@H]2O[C@@H]3COP(=O)(O)O[C@H]3[C@H]2O)c(=O)[nH]1 [8-Br cGMP, 8-bromo cGMP]
effect on Aβ-induced microglial LTB4 release [1]: completely block Aβ-induced microglial LTB4 release
effect on LPS-induced microglial TNF-α release ([2]; 8-Br cGMP 1 μM, data not shown): partially inhibit LPS-induced microglial TNF-α release
effect on LPS-induced microglial TNF-α release ([2]; 8-Br cGMP 5 μM, LPS 2.5 ng/mL, 18 h): completely inhibit LPS-induced microglial TNF-α release

COC(=O)[C@@H](N)CCCNC(=N)N[N+](=O)[O-] [L-NAME, N-ω-nitro-L-arginine methyl ester]
effect on Aβ-enhancement of ET-1-induced vasoconstriction (agent + Aβ) (rat aortic rings [3]): no statistical interaction is observed
effect on ET-1-induced vasoconstriction (agent alone) (rat aortic rings [3]): does not significantly increase ET-1-induced vasoconstriction

O=c1onc2cnc3ccccc3n12 [ODQ, 1H-[1,2,4]oxadiazolo[4,3,-α]quinoxalin-1-one]
effect on the relaxation induced by SNP (rat aortic rings [4]): blocks the relaxation induced by this NO donor
effect on Aβ-enhancement of ET-1-induced vasoconstriction (agent + Aβ) (rat aortic rings [3]): constriction which is only additive
effect on ET-1-induced vasoconstriction (agent alone) (rat aortic rings [3]): Neither ODQ or Aβ alone are able to potentiate vasoconstriction induced by ET-1

OCCN(CCO)c1nc(N2CCCCC2)c2nc(N(CCO)CCO)nc(N3CCCCC3)c2n1 [dipyridamole]
relaxation of aortic rings constricted with phenylephrine (rat aortic rings [4]; 10 μM dipyridamole, 3.5 nM PE): induced potent relaxation
effect on Aβ opposition to relaxation (rat aortic rings [4]; 10 μM dipyridamole, Aβ-treated vs control vessels, PE-constricted): blocks the opposition to relaxation normally induced by Aβ
relaxant effect on quiescent rings (rat aortic rings [4]; 10 μM dipyridamole, data not shown): no significant relaxant effect
effect on Aβ-enhancement of ET-1-induced vasoconstriction (agent + Aβ) (rat aortic rings [3]): blocks Aβ-induced vasoconstriction in a statistically interactive manner
effect on ET-1-induced vasoconstriction (agent alone) (rat aortic rings [3]): opposes ET-1-induced vasoconstriction in an ET-1 dose-dependent manner
effect on Aβ-induced microglial LTB4 release [1]: completely prevents the increased LTB4 production induced by Aβ
effect on LPS-induced microglial activation (TNF-α release) ([2]; LPS 2.5 ng/mL, 18 h, dipyridamole 10 μM, SNP 10 μM, YC-1 10 μM): markedly reduce microglial activation induced by LPS

Aβ1-40: freshly solubilized β-amyloid peptide Aβ1-40, supplied by QCB
effect on the relaxation induced by SNP (rat aortic rings [4]): relaxation induced by SNP, an NO-donor, is reduced
cAMP levels in rat aortic rings (rat aortic rings [5]; 1 μM Aβ + ET-1 vs ET-1 alone): not able to modulate cAMP levels
cGMP levels in rat aortic rings (rat aortic rings [5]; 1 μM Aβ + ET-1 vs ET-1 alone): significantly lower compared to ET-1 treatment alone
microglial LTB4 release ([1]; Aβ1-40 500 nM, vs untreated cells): significant LTB4 release

ET-1: Endothelin-1, one of the most potent cerebrovascular vasoconstrictors (CSCSSLMDKECVYFCHLDIIW; disulfide 1-15, 3-11; ends not checked; UniProt P05305 53-73, looked up)
cAMP levels in rat aortic rings (rat aortic rings [5]; [6]): increase
cGMP levels in rat aortic rings (rat aortic rings [5]; [6]): increase
